Measurements: patent US12491246B2, “Combination therapy of arms and natural killer cells” (KLEO PHARMACEUTICALS, INC., priority 2018, dated 2025)
Several values for one entry are separate records, joined by “and”; a condition that tells them apart may be missing. Identical values can stand only once.

What was measured:
[1] = system: LNCaP target cells and reporter cells with CD16a-158V/V variant; assay: ADCC reporter assay; format: cell-based, human
Procedure: In one example, LNCaP cells (human prostate cancer derived, ATCC: CRL-1740) were detached and re-suspended in 1% BSA in RPMI. Cell solution was filtered to remove cell aggregate (polystyrene tube with cell strainer, Corning: 352235) before being counted (Life Technologies Countless II cell counter) and plated (10,000 cells in 25 μL/well; Corning plates: 3917). The plated was centrifuged (5 min, 300×g) and the compound solutions (25 μL/well) were added immediately after. The antibody solutions (25 μL/well, IgG1 FC-Thermo Fisher: 10702HNAH5; Dintrophenyl-KLH polyclonal antibody-Thermo Fisher: A-6430) were added following a 45 min incubation at 37° C. The plate was then incubated with the antibody solution for 45 min to allow for cell-ARM-antibody ternary complex formation before the addition of the effector cells (60 K in 25 μL/well, ADCC reporter cells—Promega kit: G7018). The plate was centrifuged (5 min, 300×g) and effector cells were incubated for an 5 h at 37° C. Following the induction period the plate was equilibrated to 25° C. followed the addition of the luciferase substrate (75 μL/well, 1 vial in 10 mL of Bio-Glo assay buffer, Promega kit: G7018). The plate was then centrifuged (5 min, 300×g) and the luminescence was measured (Biotek Synergy H1 microplate reader).
An example set of data are present below:
LNCaP target cells and reporter cells with CD16a-158V/V variant

[2] = system: LNCap cells; assay: Ternary complex formation of ARM, antibody and target cells (flow cytometry); format: cell-based, human; settings: 20 ug/ml rabbit anti-DNP Alexa 488, 4 C 30 min, mean fluorescence
Procedure: Various technologies are suitable for assessing complex formation. One example such assay was described below. Those skilled in the art appreciate that one or more parameters and/or conditions may be adjusted and other assays/reagents/conditions, etc., can also be utilized.
Adherent cells (LNCap, CRL-1740, for example results below) were harvested using Accumax (Sigma-Aldrich A7089-100 ml). Compounds were diluted in DMSO (MP 191418) to 1000× the starting concentration used in the assay into a 96 well polypropylene plate (Corning 3357). They were then serially diluted in ½ log increments to generate 8-12 concentrations in DMSO (assay dependent). These DMSO stocks were then step diluted 1/10 into PBS (VWR Cat. #20012043). The step diluted compound range was then added into the polypropylene assay plate 1/100 the volume of the assay volume. The cells used for the assay were counted and centrifuged and resuspended at a concentration of 100,000 cells per 200 ul in Flow buffer: 1% BSA (American Bio AB01088-00100); 0.5 mM EDTA (VWR 45001-122); PBS (VWR Cat. #20012043) with 20 ug/ml rabbit anti-DNP Alexa 488 (Thermo Fisher Scientific A11097). The cells were then added into the polypropylene plate with the step diluted compounds and incubated at 4 C 30 min. At the end of the incubation, the cells were centrifuged and washed 2× with Flow buffer containing 0.5% Tween 20 (BP337-500). Samples were analyzed on a BD FacsCelesta. Mean fluorescence was analyzed using Graphpad Prism and curves were fit using log (inhibitor) vs. response-Variable slope (four parameters).

[3] = system: CIML NK cells; assay: CIML NK cell fratricide assay; format: cell-based; settings: CIML NK cells; 3 μg/ml or 20.1 nM; 2 hours post-incubation
Procedure: (§1) PBMC isolation: Leukopheresis product from a donor with body mass index (BMI) between 19-25, under 50 years old, not on immuno-suppressive drugs for at least 2 weeks with an estimated PBMC cell count of >10^10 was obtained from Key Biologics (subject ID 20982200) and transported at ambient temperature. Leukopheresis bag was wiped down with 70% EtOH, a small slit was made and contents were pipetted off into tubes. Leukopak contents were diluted 1:1 with PBS without Ca++/Mg++ and 20 ml of this mixture was layered on top of 25 mL of Ficoll. Tubes were then centrifuged at 400 g for 30 minutes without brakes. PBMCs were harvested from the interface into separate tubes, and tubes were filled to 50 mL with PBS. Cells were centrifuged for 10 min at 120 g to get rid of platelets. Supernatant was poured off and cells were re-suspended in RPMI 10% FBS at a concentration of 7-10×10^6 cells/ml. Cells were cultured overnight at 37C in a 5% CO2 atmosphere until NK cell isolation.
NK cell isolation: PBMC were centrifuged at 400 g for 10 min and re-suspended in EasySep buffer. NK cells were isolated using NK cell isolation kits from STEMCELL Technologies according to kit's manufacturers' instructions. NK cell purity and phenotype was assessed by trypan Blue and flow cytometry using the following antibody cocktail: anti-CD56PE, CD3 APC, and viability was determined using staining with Trypan Blue exclusion dye, and by flow cytometry using Near Infra-Red Fixable viability dye (Thermo Fisher).
CIML NK cell generation: Isolated NK cells were re-suspended at 2×10^6 cells/ml in XVIVO 10% Human Serum and the following concentrations IL-15 (50 ng/ml), IL-12 (10 ng/ml), IL-18(50 ng/ml) for 12 to 18 hrs. […]
(§2) NK cell fratricide (death directed at NK cells in the same culture) was assessed by flow cytometry following a 2 hr incubation with the CD38 ARM at indicated concentrations in the presence or absence of 500 μg/ml intravenous immune globulin (IVIG). […]

[4] = system: non-CIML NK cells; assay: NK cell fratricide assay, non-CIML control NK cells; format: cell-based; settings: daratumumab treatment, 2 hr
Procedure: as §1
NK cell isolation: PBMC were centrifuged at 400 g for 10 min and re-suspended in EasySep buffer. NK cells were isolated using NK cell isolation kits from STEMCELL Technologies according to kit's manufacturers' instructions. NK cell purity and phenotype was assessed by trypan Blue and flow cytometry using the following antibody cocktail: anti-CD56PE, CD3 APC, and viability was determined using staining with Trypan Blue exclusion dye, and by flow cytometry using Near Infra-Red Fixable viability dye (Thermo Fisher). […]
Purity and viability of NK cells and CIML NK cells: Among other things, the present disclosure provides highly pure and viable NK cell populations following isolation from PBMC. […] After an overnight incubation, purity and viability were assessed in the cultured cell populations. […]
as §2

Q: What does the source list for CC(C)C[C@@H]1NC(=O)[C@H](Cc2c[nH]cn2)NC(=O)[C@H](Cc2c[nH]c3ccccc23)NC(=O)[C@H](C)NC(=O)[C@@H](NC(=O)[C@H](CC(=O)O)NC(=O)CCOCCOCCOCCOCCOCCOCCOCCOCc2cn(CCCC[C@H](NC(=O)N[C@@H](CCC(=O)O)C(=O)O)C(=O)O)nn2)CSSC[C@@H](C(=O)N[C@H](C(=O)O)[C@@H](C)O)NC(=O)[C@H](Cc2c[nH]c3ccccc23)NC(=O)[C@H](C(C)C)NC(=O)[C@H](CC(C)C)NC(=O)[C@H](CCC(=O)O)NC(=O)CNC1=O [Compound I-11]?
A: Luminescence (background substracted) ([1]; I-11 3.2 nM, IgG1 FC (20 nM)): 165.5 and 123.5; Luminescence (background substracted) ([1]; I-11 3.2 nM, IgG1 FC (200 nM)): 172 and 189; Luminescence (background substracted) ([1]; I-11 3.2 nM, anti-DNP (20 ug/mL)): 128.5 and 86.5; Luminescence (background substracted) ([1]; I-11 16 nM, IgG1 FC (20 nM)): 667.5 and 621.5; Luminescence (background substracted) ([1]; I-11 16 nM, IgG1 FC (200 nM)): 1216 and 1040; Luminescence (background substracted) ([1]; I-11 16 nM, anti-DNP (20 ug/mL)): 934.5 and 855.5; Luminescence (background substracted) ([1]; I-11 80 nM, IgG1 FC (20 nM)): 1251.5 and 1037.5; Luminescence (background substracted) ([1]; I-11 80 nM, IgG1 FC (200 nM)): 1708 and 1823; Luminescence (background substracted) ([1]; I-11 80 nM, anti-DNP (20 ug/mL)): 1635.5 and 1605.5; Luminescence (background substracted) ([1]; I-11 400 nM, IgG1 FC (20 nM)): 797.5 and 679.5; Luminescence (background substracted) ([1]; I-11 400 nM, IgG1 FC (200 nM)): 1827 and 1494; Luminescence (background substracted) ([1]; I-11 400 nM, anti-DNP (20 ug/mL)): 1842.5 and 1696.5; Luminescence (background substracted) ([1]; I-11 2000 nM, IgG1 FC (20 nM)): 151.5 and 163.5; Luminescence (background substracted) ([1]; I-11 2000 nM, IgG1 FC (200 nM)): 1372 and 1118; Luminescence (background substracted) ([1]; I-11 2000 nM, anti-DNP (20 ug/mL)): 1374.5 and 1253.5; EC50 [2]: 6.6 nM

Q: With CC(C)C[C@@H]1NC(=O)[C@H](Cc2c[nH]cn2)NC(=O)[C@H](Cc2c[nH]c3ccccc23)NC(=O)[C@H](C)NC(=O)[C@@H](NC(=O)[C@@H](N)CC(=O)O)CSSC[C@@H](C(=O)N[C@H](C(=O)NCCOCCOCCOCCOCCOCCOCCOCCOCc2cn(CCCC[C@H](NC(=O)N[C@@H](CCC(=O)O)C(=O)O)C(=O)O)nn2)[C@@H](C)O)NC(=O)[C@H](Cc2c[nH]c3ccccc23)NC(=O)[C@H](C(C)C)NC(=O)[C@H](CC(C)C)NC(=O)[C@H](CCC(=O)O)NC(=O)CNC1=O [Compound I-16] as the molecule, how does the EC50 [2] read?
A: Its EC50 is 7.4 nM.

Q: For CC(C)C[C@@H]1NC(=O)[C@H](Cc2c[nH]cn2)NC(=O)[C@H](Cc2c[nH]c3ccccc23)NC(=O)[C@H](C)NC(=O)[C@@H](NC(=O)[C@H](CC(=O)O)NC(=O)CCOCCOCCOCCOCCOCCOCc2cn(CCCC[C@H](NC(=O)N[C@@H](CCC(=O)O)C(=O)O)C(=O)O)nn2)CSSC[C@@H](C(=O)N[C@H](C(=O)O)[C@@H](C)O)NC(=O)[C@H](Cc2c[nH]c3ccccc23)NC(=O)[C@H](C(C)C)NC(=O)[C@H](CC(C)C)NC(=O)[C@H](CCC(=O)O)NC(=O)CNC1=O [Compound I-33], which EC50 [2] is on record?
A: The EC50 was 3 nM.

Q: CC(C)C[C@@H]1NC(=O)[C@H](Cc2c[nH]cn2)NC(=O)[C@H](Cc2c[nH]c3ccccc23)NC(=O)[C@H](C)NC(=O)[C@@H](NC(=O)[C@H](CC(=O)O)NC(=O)CCOCCOCCOCCOCCOCCOCCOCCOCc2cn(CCCC[C@H](NC(=O)N[C@@H](CCC(=O)O)C(=O)O)C(=O)O)nn2)CSSC[C@@H](C(=O)N[C@H](C(=O)O)[C@@H](C)O)NC(=O)[C@H](Cc2c[nH]c3ccccc23)NC(=O)[C@H](C(C)C)NC(=O)[C@H](CC(C)C)NC(=O)[C@H](CCC(=O)O)NC(=O)CNC1=O [Compound I-34] was tested. Which EC50 [2] did it give?
A: Its EC50 is 8.7 nM.

Q: daratumumab [reference compound] was tested. Which “increase in the percentage of dead NK cells” value [3] did it give?
A: Its value is 4%.

Q: What about the “total increase in dead NK cells over DMSO treated control” value [4] of the same molecule?
A: The value was 5.6%.
